One block for each compound: values may come before it.
Tests used:
CFTR = target: T1, CFTR (Homo sapiens, UniProt P13569, DEL508-508); experiment: TECC24 AUC fold over DMSO @10 μM, CFTR-mediated transepithelial chloride transport in CF-HBE cells; format: cell-based; conditions: test agent AUC divided by DMSO vehicle AUC, primary CF-HBE cells, ΔF508 homozygous donor, 48 hours incubation
T1 construct: Primary human bronchial epithelial cells from a ΔF508 homozygous CF donor; host or cells: primary human bronchial epithelial cells (CF-HBE), ΔF508 homozygous donor
Method in brief: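 Primary ΔF508-homozygous CF bronchial epithelial cells on inserts were incubated 48 h at 36.5 °C with compound in IL-13-containing medium. VT and TEER were then recorded in current-clamp mode (pH 7.4 HEPES bath) with benzamil 10 μM, forskolin 10 μM, then CFTR inhibitor-172 20 μM. The IEQ AUC between forskolin and inhibitor was divided by vehicle AUC.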

NBD1 = target: T2, NBD1 (Homo sapiens, UniProt P13569); experiment: Aggregation analysis using differential static light scattering (DSLS), thermal stability of NBD1 (ΔTagg); format: binding; conditions: ΔTagg versus DMSO control, NBD1 0.2 mg/ml
T2 construct: Purified recombinant NBD1 was produced using previously described methods; made in house
Method in brief: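 Purified recombinant NBD1 at 0.2 mg/ml in Tris buffer pH7.6 with 2 mM ATP, 5 mM MgCl2, 2 mM DTT and 1% glycerol was mixed with DMSO-dissolved compounds under mineral oil. Plates were heated at 1° C. per minute to 70° C., light scattering imaged every 0.5° C.; Tagg from curve inflection, minus DMSO-control mean.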

T1 sequence (P13569 with tags, fused parts or gaps DEL508-508): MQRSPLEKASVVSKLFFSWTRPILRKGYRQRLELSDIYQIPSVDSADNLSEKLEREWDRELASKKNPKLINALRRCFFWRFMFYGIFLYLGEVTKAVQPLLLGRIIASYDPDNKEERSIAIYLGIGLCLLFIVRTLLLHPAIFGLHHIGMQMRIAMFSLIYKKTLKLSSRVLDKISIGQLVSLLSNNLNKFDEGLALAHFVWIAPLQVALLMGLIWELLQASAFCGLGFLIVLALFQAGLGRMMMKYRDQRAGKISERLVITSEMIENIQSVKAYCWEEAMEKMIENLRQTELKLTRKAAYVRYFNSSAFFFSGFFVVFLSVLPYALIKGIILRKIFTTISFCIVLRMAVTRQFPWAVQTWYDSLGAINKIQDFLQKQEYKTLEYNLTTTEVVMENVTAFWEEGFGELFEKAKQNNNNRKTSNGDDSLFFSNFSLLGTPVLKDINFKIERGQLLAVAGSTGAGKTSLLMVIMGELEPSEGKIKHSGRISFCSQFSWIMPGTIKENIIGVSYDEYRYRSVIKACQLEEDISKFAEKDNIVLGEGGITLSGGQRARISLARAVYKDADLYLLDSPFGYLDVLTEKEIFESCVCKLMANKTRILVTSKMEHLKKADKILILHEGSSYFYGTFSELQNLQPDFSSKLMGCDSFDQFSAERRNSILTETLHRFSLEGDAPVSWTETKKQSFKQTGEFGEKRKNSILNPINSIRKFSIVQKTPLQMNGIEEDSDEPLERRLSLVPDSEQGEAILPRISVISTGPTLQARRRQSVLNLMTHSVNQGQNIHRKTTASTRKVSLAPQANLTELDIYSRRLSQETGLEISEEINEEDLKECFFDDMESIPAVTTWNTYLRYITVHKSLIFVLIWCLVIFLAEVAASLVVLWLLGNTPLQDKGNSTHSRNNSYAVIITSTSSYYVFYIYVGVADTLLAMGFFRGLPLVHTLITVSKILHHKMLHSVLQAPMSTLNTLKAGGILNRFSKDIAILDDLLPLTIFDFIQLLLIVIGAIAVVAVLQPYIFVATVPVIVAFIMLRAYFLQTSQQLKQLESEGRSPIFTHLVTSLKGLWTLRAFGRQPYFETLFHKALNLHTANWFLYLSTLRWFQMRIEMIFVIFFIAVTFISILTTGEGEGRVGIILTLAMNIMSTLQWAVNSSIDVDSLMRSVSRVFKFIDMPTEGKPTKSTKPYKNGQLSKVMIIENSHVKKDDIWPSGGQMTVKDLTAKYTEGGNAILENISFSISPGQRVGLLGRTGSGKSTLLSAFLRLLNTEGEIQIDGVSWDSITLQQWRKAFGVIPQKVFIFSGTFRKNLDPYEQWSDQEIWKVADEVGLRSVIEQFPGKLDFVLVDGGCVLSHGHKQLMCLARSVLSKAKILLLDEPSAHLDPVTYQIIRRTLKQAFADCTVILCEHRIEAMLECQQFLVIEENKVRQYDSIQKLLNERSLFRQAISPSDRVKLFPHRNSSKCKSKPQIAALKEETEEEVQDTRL
T2 sequence (P13569 423-646 limits assumed): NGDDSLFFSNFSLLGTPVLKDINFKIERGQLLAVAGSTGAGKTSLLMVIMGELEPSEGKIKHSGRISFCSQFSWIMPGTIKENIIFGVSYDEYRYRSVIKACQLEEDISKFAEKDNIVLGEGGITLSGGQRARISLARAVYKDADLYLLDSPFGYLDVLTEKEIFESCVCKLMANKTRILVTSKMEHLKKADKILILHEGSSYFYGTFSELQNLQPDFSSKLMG

TECC (AUC, 10 μM) (CFTR): B (a value between 12-20 is marked “B”)
SMILES: Cn1nc2nc1-c1cc(ccc1F)Oc1c(F)cc3[nH]ccc3c1CCS(=O)(=O)CC(C)(C)OCCC2(C)c1cccc(CC(=O)O)c1 (single isomer, unassigned) [Compound 5B, 2-[3-(22,28-Difluoro-3,6,10,10-tetramethyl-12,12-dioxo-9,24-dioxa-12λ^6-thia-3,4,19,30-tetrazapentacyclo[23.3.1.12,5.015,23.016,20]triaconta-1(29),2(30),4,15,17,20,22,25,27-nonaen-6-yl)phenyl]acetic Acid]
DSLS 3D (100 μM ΔT) (NBD1): B (a value above 5 °C and less than or equal to 10 °C is marked “B”)

TECC (AUC, 10 μM) (CFTR): B (a value between 12-20 is marked “B”)
SMILES: C[C@H](Cc1cccc(C2(C)CCCC(C)(C)CS(=O)(=O)CCc3c(c(F)cc4[nH]ccc34)Oc3ccc(F)c(c3)-c3nc2nn3C)c1)C(=O)O (single isomer, unassigned) [Compound 6A]
DSLS 3D (100 μM ΔT) (NBD1): C (a value greater than 10 °C and less than or equal to 25 °C is marked “C”)

SMILES: C[C@H](Cc1cccc(C2(C)CCCC(C)(C)CS(=O)(=O)CCc3c(c(F)cc4[nH]ccc34)Oc3ccc(F)c(c3)-c3nc2nn3C)c1)C(=O)O (single isomer, unassigned) [Compound 6B]
TECC (AUC, 10 μM) (CFTR): C (a value between 20 and 80 is marked “C”)
DSLS 3D (100 μM ΔT) (NBD1): A (an ΔTagg value less than or equal to 5 °C is marked “A”)

TECC (AUC, 10 μM) (CFTR): B (a value between 12-20 is marked “B”)
SMILES: C[C@@H](Cc1cccc([C@@]2(C)CCCC(C)(C)CS(=O)(=O)CCc3c(c(F)cc4[nH]ccc34)Oc3ccc(F)c(c3)-c3nc2nn3C)c1)C(=O)O (single isomer, unassigned) [Compound 7]
DSLS 3D (100 μM ΔT) (NBD1): C (a value greater than 10 °C and less than or equal to 25 °C is marked “C”)

TECC (AUC, 10 μM) (CFTR): B (a value between 12-20 is marked “B”)
SMILES: [2H]C([2H])([2H])C1(c2cccc(CC(C)C(=O)O)c2)COCC(C)(C)CS(=O)(=O)CCc2c(c(F)cc3[nH]ccc23)Oc2ccc(F)c(c2)-c2nc1nn2C (single isomer, unassigned) [Compound 8A, 3-[3-[22,28-difluoro-3,10,10-trimethyl-12,12-dioxo-6-(trideuteriomethyl)-8,24-dioxa-12lambda6-thia-3,4,19,30-tetrazapentacyclo[23.3.1.12,5.015,23.016,20]triaconta-1(29),2(30),4,15,17,20,22,25,27-nonaen-6-yl]phenyl]-2-methyl-propanoic acid]
DSLS 3D (100 μM ΔT) (NBD1): C (a value greater than 10 °C and less than or equal to 25 °C is marked “C”)

SMILES: [2H]C([2H])([2H])C1(c2cccc(CC(C)C(=O)O)c2)COCC(C)(C)CS(=O)(=O)CCc2c(c(F)cc3[nH]ccc23)Oc2ccc(F)c(c2)-c2nc1nn2C (single isomer, unassigned) [Compound 8B, 3-[3-[22,28-difluoro-3,10,10-trimethyl-12,12-dioxo-6-(trideuteriomethyl)-8,24-dioxa-12lambda6-thia-3,4,19,30-tetrazapentacyclo[23.3.1.12,5.015,23.016,20]triaconta-1(29),2(30),4,15,17,20,22,25,27-nonaen-6-yl]phenyl]-2-methyl-propanoic Acid]
TECC (AUC, 10 μM) (CFTR): A (a TECC value less than 12 is marked “A”)
DSLS 3D (100 μM ΔT) (NBD1): A (an ΔTagg value less than or equal to 5 °C is marked “A”)

SMILES: [2H]C([2H])([2H])C1(c2cccc(CC(C)C(=O)O)c2)CCCC(C([2H])([2H])[2H])(C([2H])([2H])[2H])CS(=O)(=O)CCc2c(c(F)cc3[nH]ccc23)Oc2ccc(F)c(c2)-c2nc1nn2C (single isomer, unassigned) [Compound 9A, 3-[3-[22,28-difluoro-3-methyl-12,12-dioxo-6,10,10-tris(trideuteriomethyl)-24-oxa-12lambda6-thia-3,4,19,30-tetrazapentacyclo[23.3.1.12,5.015,23.016,20]triaconta-1(29),2(30),4,15,17,20,22,25,27-nonaen-6-yl]phenyl]-2-methyl-propanoic Acid]
TECC (AUC, 10 μM) (CFTR): A (a TECC value less than 12 is marked “A”)
DSLS 3D (100 μM ΔT) (NBD1): C (a value greater than 10 °C and less than or equal to 25 °C is marked “C”)

SMILES: [2H]C([2H])([2H])C1(c2cccc(CC(C)C(=O)O)c2)CCCC(C([2H])([2H])[2H])(C([2H])([2H])[2H])CS(=O)(=O)CCc2c(c(F)cc3[nH]ccc23)Oc2ccc(F)c(c2)-c2nc1nn2C (single isomer, unassigned) [Compound 9B, 3-[3-[22,28-difluoro-3-methyl-12,12-dioxo-6,10,10-tris(trideuteriomethyl)-24-oxa-12lambda6-thia-3,4,19,30-tetrazapentacyclo[23.3.1.12,5.015,23.016,20]triaconta-1(29),2(30),4,15,17,20,22,25,27-nonaen-6-yl]phenyl]-2-methyl-propanoic Acid]
TECC (AUC, 10 μM) (CFTR): A (a TECC value less than 12 is marked “A”)
DSLS 3D (100 μM ΔT) (NBD1): A (an ΔTagg value less than or equal to 5 °C is marked “A”)

SMILES: [2H]C([2H])([2H])C1(c2cccc(CC(C)C(=O)O)c2)CCCC(C)(C)CS(=O)(=O)CCc2c(c(F)cc3[nH]ccc23)Oc2ccc(F)c(c2)-c2nc1nn2C (single isomer, unassigned) [Compound 10A, 3-[3-[22,28-difluoro-3,10,10-trimethyl-12,12-dioxo-6-(trideuteriomethyl)-24-oxa-12lambda6-thia-3,4,19,30-tetrazapentacyclo[23.3.1.12,5.015,23.016,20]triaconta-1(29),2(30),4,15,17,20,22,25,27-nonaen-6-yl]phenyl]-2-methyl-propanoic Acid]
TECC (AUC, 10 μM) (CFTR): A (a TECC value less than 12 is marked “A”)
DSLS 3D (100 μM ΔT) (NBD1): C (a value greater than 10 °C and less than or equal to 25 °C is marked “C”)

SMILES: [2H]C([2H])([2H])C1(c2cccc(CC(C)C(=O)O)c2)CCCC(C)(C)CS(=O)(=O)CCc2c(c(F)cc3[nH]ccc23)Oc2ccc(F)c(c2)-c2nc1nn2C (single isomer, unassigned) [Compound 10B, 3-[3-[22,28-difluoro-3,10,10-trimethyl-12,12-dioxo-6-(trideuteriomethyl)-24-oxa-12lambda6-thia-3,4,19,30-tetrazapentacyclo[23.3.1.12,5.015,23.016,20]triaconta-1(29),2(30),4,15,17,20,22,25,27-nonaen-6-yl]phenyl]-2-methyl-propanoic Acid]
TECC (AUC, 10 μM) (CFTR): A (a TECC value less than 12 is marked “A”)
DSLS 3D (100 μM ΔT) (NBD1): B (a value above 5 °C and less than or equal to 10 °C is marked “B”)

SMILES: CC(Cc1cccc(C2(C)CCC(=O)C(C)(C)CS(=O)(=O)CCc3c(c(F)cc4[nH]ccc34)Oc3ccc(F)c(c3)-c3nc2nn3C)c1)C(=O)O (single isomer, unassigned) [Compound 11A, 3-[3-[22,28-difluoro-3,6,10,10-tetramethyl-9,12,12-trioxo-24-oxa-12lambda6-thia-3,4,19,30-tetrazapentacyclo[23.3.1.12,5.015,23.016,20]triaconta-1(29),2(30),4,15,17,20,22,25,27-nonaen-6-yl]phenyl]-2-methyl-propanoic Acid]
TECC (AUC, 10 μM) (CFTR): C (a value between 20 and 80 is marked “C”)
DSLS 3D (100 μM ΔT) (NBD1): C (a value greater than 10 °C and less than or equal to 25 °C is marked “C”)

SMILES: CC(Cc1cccc(C2(C)CCC(=O)C(C)(C)CS(=O)(=O)CCc3c(c(F)cc4[nH]ccc34)Oc3ccc(F)c(c3)-c3nc2nn3C)c1)C(=O)O (single isomer, unassigned) [Compound 11B, 3-[3-[22,28-difluoro-3,6,10,10-tetramethyl-9,12,12-trioxo-24-oxa-12lambda6-thia-3,4,19,30-tetrazapentacyclo[23.3.1.12,5.015,23.016,20]triaconta-1(29),2(30),4,15,17,20,22,25,27-nonaen-6-yl]phenyl]-2-methyl-propanoic Acid]
TECC (AUC, 10 μM) (CFTR): A (a TECC value less than 12 is marked “A”)
DSLS 3D (100 μM ΔT) (NBD1): A (an ΔTagg value less than or equal to 5 °C is marked “A”)

TECC (AUC, 10 μM) (CFTR): B (a value between 12-20 is marked “B”)
SMILES: Cn1nc2nc1-c1cc(ccc1F)Oc1c(F)cc3[nH]ccc3c1CCS(=O)(=O)CC1(CCCC2(C)c2cccc(CCC(=O)O)c2)CC1 (single isomer, unassigned) [Compound 12A, 3-[3-(22,28-difluoro-3,6-dimethyl-12,12-dioxo-spiro[24-oxa-12lambda6-thia-3,4,19,30-tetrazapentacyclo[23.3.1.12,5.015,23.016,20]triaconta-1(29),2(30),4,15,17,20,22,25,27-nonaene-10,1′-cyclopropane]-6-yl)phenyl]propanoic Acid]
DSLS 3D (100 μM ΔT) (NBD1): C (a value greater than 10 °C and less than or equal to 25 °C is marked “C”)

SMILES: Cn1nc2nc1-c1cc(ccc1F)Oc1c(F)cc3[nH]ccc3c1CCS(=O)(=O)CC1(CCCC2(C)c2cccc(CCC(=O)O)c2)CC1 (single isomer, unassigned) [Compound 12B, 3-[3-(22,28-difluoro-3,6-dimethyl-12,12-dioxo-spiro[24-oxa-12lambda6-thia-3,4,19,30-tetrazapentacyclo[23.3.1.12,5.015,23.016,20]triaconta-1(29),2(30),4,15,17,20,22,25,27-nonaene-10,1′-cyclopropane]-6-yl)phenyl]propanoic acid]
TECC (AUC, 10 μM) (CFTR): C (a value between 20 and 80 is marked “C”)
DSLS 3D (100 μM ΔT) (NBD1): A (an ΔTagg value less than or equal to 5 °C is marked “A”)

— patent publication US12649750B2, “Macrocyclic compounds, compositions, and methods of using thereof” (Sionna Therapeutics Inc., priority 2022, dated 2026)
